Where two headings read alike, the source gives them in different places.
Assays:
hM3 [1] = target: T1, hM3 (Homo sapiens, UniProt P20309); experiment: Competitive [3H]NMS radioligand binding, CHO-K1 membranes expressing hM3; conditions: for Displacement ± SD hM3: displacement of [3H]NMS, single ligand concentration corresponding to a Ki value of 1 µM (Cheng-Prusoff)
Source text: (§1) The arecaidine esters’ affinities towards the human mAChR subtypes hM1–hM5 were studied in a competitive radioligand binding assay using CHO-K1 cell membrane homogenates expressing a single mAChR subtype and tritiated N-methyl scopolamine methyl chloride ([^3H]NMS). To speed up our affinity testing regime, we subjected all test substances to preliminary single-concentration displacement assays, as described previously. Compounds with percent displacements below 75% at any of the subtypes were dropped from further investigations (Table S1). For compounds meeting the percent displacement threshold (8c, 10b, 10c, 17b, 18b, and 25), inhibition constants (Ki) were assessed in dose-dependent displacement experiments (Table 2).
(§2) Cell membranes bearing hM1-hM5 receptors were prepared as described previously. Briefly, stably transfected CHO-K1 cells were grown to at least 80% confluency in T175 flasks, washed with ice-cold DPBS, and scraped into a mixture of ice-cold 2 mL 10 mM Tris-HCl, 1 mM EDTA-buffer, pH 7.4 and 200 µL protease inhibitor. A cell homogenate was prepared by passing the cell suspension through a G29 needle. The cell homogenates corresponding to two T175 flasks were combined and subsequently centrifuged (10 min, 1000× g, 4 °C). Ultracentrifugation of the supernatant (1 h, 100,000× g, 4 °C) yielded a membrane pellet, which was suspended in 250 µL 50 mM Tris-HCl buffer, pH 7.4 and stored at −80 °C.
(§3) Then, 5 µL of test compound in DMSO, 50 µL of [^3H]NMS in assay buffer, and 445 µL of membrane suspension in assay buffer were incubated for 90 min at 23 °C in PP tubes. Maximum binding was measured by using 5 µL DMSO, and nonspecific binding was measured by using 5 µL of 1 µM scopolamine in DMSO. The effective concentration of [^3H]NMS was 0.2 nM, 0.3 nM, 0.8 nM, 0.2 nM, and 1 nM for M1–M5 and 4–30 µg membrane were used per tube. The membrane-bound radioactivity was recovered by filtration through Whatman™ GF/B glass fiber filters presoaked in aqueous 0.1% PEI using an M-36 tygon tubed cell harvester (Brandel®, Gaithersburg, MD, USA). Membranes were washed three times with ice-cold washing buffer (50 mM Tris, pH 7.4) before being dried, transferred to 2 mL scintillation cocktail (UltimaGold™, high flashpoint LSC cocktail, PerkinElmer, Waltham, MA, USA) and counted in a β-counter (Hidex TDCR liquid scintillation counter in CPM mode). IC50 values were calculated by a variable slope logistic regression using at least five distinct concentrations of test compounds, pipetted in triplicates.

hM5 [2] = target: T2, hM5 (Homo sapiens, UniProt P08912); experiment: Competitive [3H]NMS radioligand binding, CHO-K1 membranes expressing hM5; conditions: for Displacement ± SD hM5: displacement of [3H]NMS, single ligand concentration corresponding to a Ki value of 1 µM (Cheng-Prusoff)
T2 sequence (P08912 1-532): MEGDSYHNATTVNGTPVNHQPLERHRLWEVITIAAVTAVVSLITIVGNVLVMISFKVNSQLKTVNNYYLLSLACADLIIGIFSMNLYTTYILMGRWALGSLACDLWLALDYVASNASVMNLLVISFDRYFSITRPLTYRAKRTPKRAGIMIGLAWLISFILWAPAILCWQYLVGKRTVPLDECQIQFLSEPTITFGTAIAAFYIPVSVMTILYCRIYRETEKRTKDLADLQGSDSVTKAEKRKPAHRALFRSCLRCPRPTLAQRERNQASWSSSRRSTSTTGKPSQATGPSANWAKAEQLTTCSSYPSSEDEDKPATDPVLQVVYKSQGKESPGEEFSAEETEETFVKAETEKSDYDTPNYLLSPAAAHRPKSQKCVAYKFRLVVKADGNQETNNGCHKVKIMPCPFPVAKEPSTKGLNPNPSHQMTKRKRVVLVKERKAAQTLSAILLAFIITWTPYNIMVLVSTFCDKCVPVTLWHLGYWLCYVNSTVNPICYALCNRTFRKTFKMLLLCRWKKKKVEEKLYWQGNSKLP
Source text: as §1, §2, §3

hM2 [3] = target: T3, hM2 (Homo sapiens, UniProt P08172); experiment: Competitive [3H]NMS radioligand binding, CHO-K1 membranes expressing hM2; conditions: for Displacement ± SD hM2: displacement of [3H]NMS, single ligand concentration corresponding to a Ki value of 1 µM (Cheng-Prusoff)
T3 sequence (P08172 1-466): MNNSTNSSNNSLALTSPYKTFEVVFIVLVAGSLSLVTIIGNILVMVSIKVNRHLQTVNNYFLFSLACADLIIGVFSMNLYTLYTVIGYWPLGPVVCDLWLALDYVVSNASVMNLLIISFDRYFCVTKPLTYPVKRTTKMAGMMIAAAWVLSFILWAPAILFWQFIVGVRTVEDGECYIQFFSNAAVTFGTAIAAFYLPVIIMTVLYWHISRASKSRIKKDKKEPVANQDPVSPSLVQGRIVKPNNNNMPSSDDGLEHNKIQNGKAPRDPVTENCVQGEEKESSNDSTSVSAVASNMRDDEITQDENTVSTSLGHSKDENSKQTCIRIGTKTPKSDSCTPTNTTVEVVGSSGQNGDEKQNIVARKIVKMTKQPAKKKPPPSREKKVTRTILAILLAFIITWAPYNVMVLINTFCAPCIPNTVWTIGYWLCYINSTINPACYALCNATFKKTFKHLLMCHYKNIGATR
Source text: as §1, §2, §3

hM1 [4] = target: T4, hM1 (Homo sapiens, UniProt P11229); experiment: Competitive [3H]NMS radioligand binding, CHO-K1 membranes expressing hM1; conditions: for Displacement ± SD hM1: displacement of [3H]NMS, single ligand concentration corresponding to a Ki value of 1 µM (Cheng-Prusoff)
T4 sequence (P11229 1-460): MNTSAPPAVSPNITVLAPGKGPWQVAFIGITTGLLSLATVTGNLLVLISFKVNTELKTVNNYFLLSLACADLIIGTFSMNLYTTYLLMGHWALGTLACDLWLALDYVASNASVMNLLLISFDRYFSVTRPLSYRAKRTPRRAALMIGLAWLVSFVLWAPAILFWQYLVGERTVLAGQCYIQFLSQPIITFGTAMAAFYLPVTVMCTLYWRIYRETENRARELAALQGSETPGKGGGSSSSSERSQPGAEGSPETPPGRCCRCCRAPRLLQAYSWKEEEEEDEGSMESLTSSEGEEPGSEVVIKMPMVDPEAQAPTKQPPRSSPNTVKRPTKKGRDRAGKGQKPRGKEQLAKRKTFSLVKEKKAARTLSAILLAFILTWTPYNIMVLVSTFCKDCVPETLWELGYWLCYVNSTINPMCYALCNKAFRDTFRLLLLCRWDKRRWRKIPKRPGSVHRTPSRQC
Source text: as §1, §2, §3

hM4 [5] = target: T5, hM4 (Homo sapiens, UniProt P08173); experiment: Competitive [3H]NMS radioligand binding, CHO-K1 membranes expressing hM4; conditions: for Displacement ± SD hM4: displacement of [3H]NMS, single ligand concentration corresponding to a Ki value of 1 µM (Cheng-Prusoff)
T5 sequence (P08173 1-479): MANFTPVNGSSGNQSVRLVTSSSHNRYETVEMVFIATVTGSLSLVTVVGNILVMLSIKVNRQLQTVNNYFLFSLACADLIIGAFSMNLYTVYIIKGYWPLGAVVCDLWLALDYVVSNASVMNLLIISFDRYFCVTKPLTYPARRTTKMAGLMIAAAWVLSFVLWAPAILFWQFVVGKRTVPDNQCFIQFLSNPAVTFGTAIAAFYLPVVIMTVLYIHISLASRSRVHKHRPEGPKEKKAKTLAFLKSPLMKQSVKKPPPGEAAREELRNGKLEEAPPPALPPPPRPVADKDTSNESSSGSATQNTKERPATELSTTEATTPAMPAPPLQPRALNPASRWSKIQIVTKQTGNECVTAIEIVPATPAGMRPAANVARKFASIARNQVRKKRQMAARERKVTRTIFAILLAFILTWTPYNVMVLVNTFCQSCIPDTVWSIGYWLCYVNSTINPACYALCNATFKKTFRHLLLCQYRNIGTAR
Source text: as §1, §2, §3

[6] = High-throughput HPLC-logD; format: physicochemical; conditions: octadecyl-poly(vinyl alcohol) column, methanol / 0.01 M sodium phosphate buffer pH 7.4
Source text: For this, logD values were estimated in an HPLC-based high-throughput assay employing an octadecyl-poly(vinyl alcohol) stationary phase. The absence of silanol groups renders this type of column especially suited in case of analytes with hydrogen bond donor capabilities as it avoids overestimating their lipophilicity.
Briefly, a mixture of toluene (≥98%, Sigma-Aldrich, St. Louis, MO, USA) and triphenylene (≥99.9%, Carl Roth, Karlsruhe, Germany) was used as internal standard. Samples were dissolved in the internal standard mixture. Using gradient elution, the injection volume was set to 7 µL, the flow rate was 1.5 mL/min, and the mobile phase consisted of a mixture of methanol and 0.01 M sodium phosphate buffer pH 7.4. The HPLC-logD values were derived from the measured retention times following the previously published equation [21, 40].

hM1 [7] = target: T4, hM1; design: method as in Ozenil et al. [10]; conditions: [3H]NMS; ref Ozenil et al. [10]; read-out: Affinity: Ki ± SD hM1; cited from earlier work
[8] = design: method as in Ozenil et al. [10]; conditions: ref Ozenil et al. [10]; cited from earlier work
hM4 [9] = target: T5, hM4; design: method as in Ozenil et al. [10]; conditions: [3H]NMS; ref Ozenil et al. [10]; read-out: Affinity: Ki ± SD hM4; cited from earlier work
hM3 [10] = target: T1, hM3; design: method as in Ozenil et al. [10]; conditions: [3H]NMS; ref Ozenil et al. [10]; read-out: Affinity: Ki ± SD hM3; cited from earlier work
hM5 [11] = target: T2, hM5; design: method as in Ozenil et al. [10]; conditions: [3H]NMS; ref Ozenil et al. [10]; read-out: Affinity: Ki ± SD hM5; cited from earlier work
hM2 [12] = target: T3, hM2; design: method as in Ozenil et al. [10]; conditions: [3H]NMS; ref Ozenil et al. [10]; read-out: Affinity: Ki ± SD hM2; cited from earlier work

T1 sequence (P20309 whole entry): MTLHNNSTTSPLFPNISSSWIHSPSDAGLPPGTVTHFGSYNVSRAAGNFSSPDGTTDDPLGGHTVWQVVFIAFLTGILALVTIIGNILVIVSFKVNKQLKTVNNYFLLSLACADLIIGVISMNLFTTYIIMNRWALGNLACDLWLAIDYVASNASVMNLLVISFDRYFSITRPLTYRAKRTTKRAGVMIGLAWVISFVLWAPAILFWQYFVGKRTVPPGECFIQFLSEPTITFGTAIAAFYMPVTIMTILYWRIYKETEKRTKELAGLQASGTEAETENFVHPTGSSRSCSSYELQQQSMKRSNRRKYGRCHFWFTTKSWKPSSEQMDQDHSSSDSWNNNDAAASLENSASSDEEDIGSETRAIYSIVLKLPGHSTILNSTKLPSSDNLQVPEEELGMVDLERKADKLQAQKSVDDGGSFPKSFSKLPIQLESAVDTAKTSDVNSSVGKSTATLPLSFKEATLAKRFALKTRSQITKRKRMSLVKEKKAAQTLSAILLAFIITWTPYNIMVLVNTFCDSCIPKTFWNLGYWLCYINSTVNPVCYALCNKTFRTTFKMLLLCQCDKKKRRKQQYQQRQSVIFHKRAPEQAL

Row | SMILES | Displacement ± SD hM3 (hM3 [1]) [%] | Displacement ± SD hM5 (hM5 [2]) [%] | Displacement ± SD hM2 (hM2 [3]) [%] | Displacement ± SD hM1 (hM1 [4]) [%] | Displacement ± SD hM4 (hM4 [5]) [%] | chromatographic logD [6] | further results
1 | CN1CCC=C(C(=O)OCc2ccccc2CO)C1 [Compound 8a, 2-(hydroxymethyl)benzyl 1-methyl-1,2,5,6-tetrahydropyridine-3-carboxylate] | 72 ± 4 | 72 ± 3 | 43 ± 2 | 66 ± 5 | 56 ± 9 | 0.79 ± 0.01 | 
2 | CN1CCC=C(C(=O)OCc2cccc(CO)c2)C1 [Compound 8b, 3-(hydroxymethyl)benzyl 1-methyl-1,2,5,6-tetrahydropyridine-3-carboxylate] | 34 ± 4 | 29 ± 6 | 23 ± 4 | 31 ± 3 | 22 ± 1 | 0.87 ± 0.01 | 
3 | CN1CCC=C(C(=O)OC(c2ccccc2)c2cccc(CO)c2)C1 (centres unmarked) [Compound 10b, (3-(hydroxymethyl)phenyl)(phenyl)methyl 1-methyl-1,2,5,6-tetrahydropyridine-3-carboxylate] |  |  |  |  |  | 2.6 ± 0.1 | Ki (hM3 [1]; [3H]NMS, CHO-hM3 cell membrane preparations, read-out: Affinity: Ki ± SD hM3): 0.0704 ± 0.0018 µM; Ki (hM5 [2]; [3H]NMS, CHO-hM5 cell membrane preparations, read-out: Affinity: Ki ± SD hM5): 0.0491 ± 0.0085 µM; Ki (hM2 [3]; [3H]NMS, CHO-hM2 cell membrane preparations, >1000 values from two independent (single-concentration) experiments, read-out: Affinity: Ki ± SD hM2): 0.198 ± 0.035 µM; Ki (hM1 [4]; [3H]NMS, CHO-hM1 cell membrane preparations, read-out: Affinity: Ki ± SD hM1): 0.0125 ± 0.0008 µM; Ki (hM4 [5]; [3H]NMS, CHO-hM4 cell membrane preparations, read-out: Affinity: Ki ± SD hM4): 0.0323 ± 0.0038 µM
4 | CN1CCC=C(C(=O)OC(CO)c2ccccc2)C1 (centres unmarked) [Compound 22, 2-hydroxy-1-phenylethyl 1-methyl-1,2,5,6-tetrahydropyridine-3-carboxylate] | 33 ± 8 | 72 ± 5 | 28 ± 5 | 61 ± 2 | 51 ± 5 | 0.92 ± 0.08 | 
5 | CN1CCC=C(C(=O)Oc2ccccc2-c2ccccc2O)C1 [Compound 27, 2′-hydroxy-[1,1′-biphenyl]-2-yl 1-methyl-1,2,5,6-tetrahydropyridine-3-carboxylate] | 51 ± 9 | 65 ± 11 | 34 ± 7 | 37 ± 6 | 46 ± 3 | 2.69 ± 0.01 | melting point: 142 to 144 °C
6 | CN1CCC=C(C(=O)OC(c2ccccc2)c2ccccc2)C1 [DPMA, benzhydryl 1-methyl-1,2,5,6-tetrahydropyridine-3-carboxylate] |  |  |  |  |  |  | Ki (hM1 [7]): 0.0031 ± 0.0005 µM; HPLC-logD [8]: 3.32 ± 0.04 ^2; Ki (hM4 [9]): 0.016 ± 0.004 µM; x-Fold Selectivity for hM1 vs. hM2 (hM1 [4]; ratio of the Ki values hM2/hM1): 35.5 x-fold; x-Fold Selectivity for hM1 vs. hM3 (hM1 [4]; ratio of the Ki values hM3/hM1): 18.1 x-fold; x-Fold Selectivity for hM1 vs. hM4 (hM1 [4]; ratio of the Ki values hM4/hM1): 5.2 x-fold; x-Fold Selectivity for hM1 vs. hM5 (hM1 [4]; ratio of the Ki values hM5/hM1): 4.5 x-fold; Ki (hM3 [10]): 0.056 ± 0.022 µM; Ki (hM5 [11]): 0.014 ± 0.001 µM; Ki (hM2 [12]): 0.11 ± 0.039 µM
